The text below walks through data of the NIST ThermoML archive (doi:10.1016/j.fluid.2008.01.024).

Data set [1] is described as follows: relative permittivity at zero frequency (dimensionless). The following applies: 303.15 K; 101 kPa; Liquid; capacitive measurement method.
Data set [2] can be described thus: relative permittivity at zero frequency (dimensionless); xn = mol fraction of the nth substance listed. The following applies: 303.15 K, 101 kPa, Liquid, capacitive measurement method.

Molecules are shown by their SMILES. Numbers after ± are expanded uncertainties.

Take `CN(C)CCO` [2-(N,N-dimethylamino)ethanol]: the “relative permittivity at zero frequency” value in data set [1] is on record as 17.18 ± 0.1.
`CN(C)CCO` [2-(N,N-dimethylamino)ethanol] + OCC(O)CO: the “relative permittivity at zero frequency” value was found to be 17.18 ± 0.1 in data set [2] (x2 = 0); 18.66 ± 0.11 in data set [2] (x2 = 0.09); 20.4 ± 0.12 in data set [2] (x2 = 0.175); 22.09 ± 0.13 in data set [2] (x2 = 0.257); 23.83 ± 0.14 in data set [2] (x2 = 0.334); 25.5 ± 0.15 in data set [2] (x2 = 0.409). For the same compound, the “relative permittivity at zero frequency” value is given as 27.25 ± 0.16 in data set [2] (x2 = 0.48); 28.98 ± 0.17 in data set [2] (x2 = 0.547); 30.54 ± 0.18 in data set [2] (x2 = 0.612); 32.59 ± 0.2 in data set [2] (x2 = 0.675); 33.74 ± 0.2 in data set [2] (x2 = 0.734); 35.03 ± 0.21 in data set [2] (x2 = 0.792). For the same compound, the “relative permittivity at zero frequency” value is reported as 37.13 ± 0.22 in data set [2] (x2 = 0.847), 38.63 ± 0.23 in data set [2] (x2 = 0.9) and 39.96 ± 0.24 in data set [2] (x2 = 0.951).
For the compound `CN(C)C=O` [dimethylformamide], in data set [1], the “relative permittivity at zero frequency” value was 36.55 ± 0.22.
Consider `CN(C)C=O` [dimethylformamide] + OCC(O)CO, for which the “relative permittivity at zero frequency” value in data set [2] (x2 = 0) was 36.55 ± 0.22.
For the compound `NC=O` [formamide], the “relative permittivity at zero frequency” value in data set [1] stood at 106.14 ± 0.64.
Regarding `NC=O` [formamide] + OCC(O)CO, the “relative permittivity at zero frequency” value in data set [2] (x2 = 0) is reported as 106.14 ± 0.64; in data set [2] (x2 = 0.037) it was 103.13 ± 0.62; in data set [2] (x2 = 0.077), 100.3 ± 0.6; in data set [2] (x2 = 0.12), 96.91 ± 0.58; in data set [2] (x2 = 0.165) it was 93.46 ± 0.56; in data set [2] (x2 = 0.214), 89.87 ± 0.54. Also, the “relative permittivity at zero frequency” value in data set [2] (x2 = 0.266) worked out at 85.74 ± 0.51; in data set [2] (x2 = 0.322), 81.37 ± 0.49; in data set [2] (x2 = 0.383), 76.3 ± 0.46; in data set [2] (x2 = 0.449) it was 71.94 ± 0.43; in data set [2] (x2 = 0.521), 66.48 ± 0.4; in data set [2] (x2 = 0.599), 61.52 ± 0.37. Besides, the “relative permittivity at zero frequency” value in data set [2] (x2 = 0.685) came to 56.42 ± 0.34; in data set [2] (x2 = 0.779) it was 50.76 ± 0.3; in data set [2] (x2 = 0.884), 45.45 ± 0.27.
